We go through 25 compounds from patent US6949542B2, “Dihydro-benzo[b][1,4]diazepin-2-one derivatives” (Hoffman-La Roche Inc., priority 2002, dated 2005).

Consider `Cc1cc2c(cc1Cl)NC(=O)CC(c1cccc(-c3ccnc(CC(C)C)c3)c1)=N2` [Example 277, 8-Chloro-4-[3-(2-isobutyl-pyridin-4-yl)-phenyl]-7-methyl-1,3-dihydro-benzo[b][1,4]diazepin-2-one], for which the melting point came to 198 °C. Compound `CC(C)Cc1cc(-c2cccc(C3=Nc4cc(Cl)c(C(F)(F)F)cc4NC(=O)C3)c2)ccn1` [Example 278, 7-Chloro-4-[3-(2-isobutyl-pyridin-4-yl)-phenyl]-8-trifluoromethyl-1,3-dihydro benzo[b][1,4]diazepin-2-one] came in with a melting point of 213 °C. With `CC(C)Cc1cc(-c2cccc(C3=Nc4cc(Cl)c(Cl)cc4NC(=O)C3)c2)ccn1` [Example 279, 7,8-Dichloro-4-[3-(2-isobutyl-pyridin-4-yl)-phenyl]-1,3-dihydro-benzo[b][1,4]diazepin-2-one] the figure was 204 °C; with `CCOc1cc2c(cc1C(F)(F)F)NC(=O)CC(c1cccc(-c3ccnc(CC(C)C)c3)c1)=N2` [Example 280, 4-[3-(2-Isobutyl-pyridin-4-yl)-phenyl]-7-ethoxy-8-trifluoromethyl-1,3-dihydro-benzo[b][1,4]diazepin-2-one], 203 °C.

`CC(C)Cc1cc(-c2cccc(C3=Nc4ccc(C(F)(F)F)cc4NC(=O)C3)c2)ccn1` [Example 281, 4-[3-(2-Isobutyl-pyridin-4-yl)-phenyl]-8-trifluoromethyl-1,3-dihydro benzo[b][1,4]diazepin-2-one]: the melting point turned out to be 181 °C. With `Cc1cc2c(cc1Cl)NC(=O)CC(c1cccc(-c3ccnc(CO)c3)c1)=N2` [Example 282, 8-Chloro-4-[3-(2-hydroxymethyl-pyridin-4-yl)-phenyl]-7-methyl-1,3-dihydro-benzo[b][1,4]diazepin-2-one] the figure was 234 °C. On to `O=C1CC(c2cccc(-c3ccnc(CO)c3)c2)=Nc2cc(Cl)c(C(F)(F)F)cc2N1` [Example 284, 7-Chloro-4-[3-(2-hydroxymethyl-pyridin-4-yl)-phenyl]-8-trifluoromethyl-1,3-dihydro benzo[b][1,4]diazepin-2-one], for which the melting point is 199 °C.

`O=C1CC(c2cccc(-c3ccnc(CO)c3)c2)=Nc2cc(Cl)c(Cl)cc2N1` [Example 285, 7,8-Dichloro-4-[3-(2-hydroxymethyl-pyridin-4-yl)-phenyl]-1,3-dihydro-benzo[b][1,4]diazepin-2-one] registered a melting point of 224 °C.

For the compound `O=C1CC(c2cccc(-c3ccnc(CO)c3)c2)=Nc2cc(OCC(F)(F)F)c(C(F)(F)F)cc2N1` [Example 286, 4-[3-(2-Hydroxymethyl-pyridin-4-yl)-phenyl]-7-(2,2,2-trifluoro-ethoxy)-8-trifluoromethyl-1,3-dihydro-benzo[b][1,4]diazepin-2-one], the melting point was determined as 201 °C.

Turning to `CCOc1cc2c(cc1C(F)(F)F)NC(=O)CC(c1cccc(-c3ccnc(CO)c3)c1)=N2` [Example 287, 4-[3-(2-Hydroxymethyl-pyridin-4-yl)-phenyl]-7-ethoxy-8-trifluoromethyl-1,3-dihydro-benzo[b][1,4]diazepin-2-one], the melting point was 216 °C.

As for `Cc1ncccc1-c1cccc(C2=Nc3ccc(-n4cccc4)cc3NC(=O)C2)c1` [Example 289, 4-[3-(2-Methyl-pyridin-3-yl)-phenyl]-8-pyrrol-1-yl-1,3-dihydro-benzo[b][1,4]diazepin-2-one], the melting point is 215 to 216 °C. With `Cc1cc2c(cc1Cl)NC(=O)CC(c1ccnc(-c3cccnc3)c1)=N2` [Example 291, 4-[2,3′]Bipyridinyl-4-yl-8-chloro-7-methyl-1,3-dihydro-benzo[b][1,4]diazepin-2-one], the melting point fell in the range of 229 to 231 °C. With `Cc1cc2c(cc1C(F)(F)F)NC(=O)CC(c1ccnc(-c3ccncc3)c1)=N2` [Example 292, 4-[2,4′]Bipyridinyl-4-yl-7-methyl-8-trifluoromethyl-1,3-dihydro-benzo[b][1,4]diazepin-2-one] the figure was 224 to 226 °C; with `Cc1cc2c(cc1Cl)NC(=O)CC(c1ccnc(-c3ccncc3)c1)=N2` [Example 293, 4-[2,4′]Bipyridinyl-4-yl-8-chloro-7-methyl-1,3-dihydro-benzo[b][1,4]diazepin-2-one], 233 to 235 °C; with `Cc1cc(-c2cc(C3=Nc4cc(C)c(Cl)cc4NC(=O)C3)ccn2)ccn1` [Example 295, 8-Chloro-7-methyl-4-(2′-methyl-[2,4′]bipyridinyl-4-yl)-1,3-dihydro-benzo[b][1,4]diazepin-2-one], 225 to 227 °C. On to `Cc1cc2c(cc1Cl)NC(=O)CC(c1cccc(-c3ccncn3)c1)=N2` [Example 297, 8-Chloro-7-methyl-4-(3-pyrimidin-4-yl-phenyl)-1,3-dihydro-benzo[b][1,4]diazepin-2-one], for which the melting point lay in the range of 242 to 247 °C. To `CN(C)c1cc2c(cc1C(F)(F)F)NC(=O)CC(c1cccc(-c3ccncn3)c1)=N2` [Example 298, 7-Dimethylamino-4-(3-pyrimidin-4-yl-phenyl)-8-trifluoromethyl-1,3-dihydro-benzo[b][1,4]diazepin-2-one] belongs 209 to 210 °C. `O=C1CC(c2cccc(-c3ccncn3)c2)=Nc2ccc(Cl)cc2N1` [Example 299, 8-Chloro-4-(3-pyrimidin-4-yl-phenyl)-1,3-dihydro-benzo[b][1,4]diazepin-2-one] returned a melting point of 220 to 233 °C. To `O=C1CC(c2cccc(-c3ccncn3)c2)=Nc2cc(Cl)c(Cl)cc2N1` [Example 300, 7,8-Dichloro-4-(3-pyrimidin-4-yl-phenyl)-1,3-dihydro-benzo[b][1,4]diazepin-2-one] belongs 234 to 237 °C; to `Cc1nccc(-c2cccc(C3=Nc4cc(C)c(C(F)(F)F)cc4NC(=O)C3)c2)n1` [Example 301, 7-Methyl-4-[3-(2-methyl-pyrimidin-4-yl)-phenyl]-8-trifluoromethyl-1,3-dihydro-benzo[b][1,4]diazepin-2-one], 230 to 232 °C.

With `Cc1nccc(-c2cccc(C3=Nc4ccc(C(F)(F)F)cc4NC(=O)C3)c2)n1` [Example 304, 4-[3-(2-Methyl-pyrimidin-4-yl)-phenyl]-8-trifluoromethyl-1,3-dihydro-benzo[b][1,4]diazepin-2-one], the melting point was 212 to 226 °C.

Consider `Cc1nccc(-c2cccc(C3=Nc4ccc(Cl)cc4NC(=O)C3)c2)n1` [Example 305, 8-Chloro-4-[3-(2-methyl-pyrimidin-4-yl)-phenyl]-1,3-dihydro-benzo[b][1,4]diazepin-2-one], for which the melting point lay within 215 to 220 °C. As to `Cc1nccc(-c2cccc(C3=Nc4cc(Cl)c(Cl)cc4NC(=O)C3)c2)n1` [Example 306, 7,8-Dichloro-4-[3-(2-methyl-pyrimidin-4-yl)-phenyl]-1,3-dihydro-benzo[b][1,4]diazepin-2-one], the melting point was 241 to 242 °C. To `Cc1nccc(-c2cccc(C3=Nc4ccc(-n5cccc5)cc4NC(=O)C3)c2)n1` [Example 307, 4-[3-(2-Methyl-pyrimidin-4-yl)-phenyl]-8-pyrrol-1-yl-1,3-dihydro-benzo[b][1,4]diazepin-2-one] belongs 209 to 212 °C; to `Cc1cc(-c2cccc(C3=Nc4cc(C)c(C(F)(F)F)cc4NC(=O)C3)c2)ncn1` [Example 308, 7-Methyl-4-[3-(6-methyl-pyrimidin-4-yl)-phenyl]-8-trifluoromethyl-1,3-dihydro-benzo[b][1,4]diazepin-2-one], 227 to 230 °C.
